Reference: US10544106B2, “Certain chemical entities, compositions, and methods” (NeuPharma, Inc., priority 2016, dated 2020)

What follows are compounds tested against BTK (Homo sapiens (Human), UniProt Q06187) (assay: Z'-LYTE kinase inhibition assay against BTK). Conditions: compound at 100 nM; ATP concentration at Km.
Sequence of BTK (Q06187 whole entry): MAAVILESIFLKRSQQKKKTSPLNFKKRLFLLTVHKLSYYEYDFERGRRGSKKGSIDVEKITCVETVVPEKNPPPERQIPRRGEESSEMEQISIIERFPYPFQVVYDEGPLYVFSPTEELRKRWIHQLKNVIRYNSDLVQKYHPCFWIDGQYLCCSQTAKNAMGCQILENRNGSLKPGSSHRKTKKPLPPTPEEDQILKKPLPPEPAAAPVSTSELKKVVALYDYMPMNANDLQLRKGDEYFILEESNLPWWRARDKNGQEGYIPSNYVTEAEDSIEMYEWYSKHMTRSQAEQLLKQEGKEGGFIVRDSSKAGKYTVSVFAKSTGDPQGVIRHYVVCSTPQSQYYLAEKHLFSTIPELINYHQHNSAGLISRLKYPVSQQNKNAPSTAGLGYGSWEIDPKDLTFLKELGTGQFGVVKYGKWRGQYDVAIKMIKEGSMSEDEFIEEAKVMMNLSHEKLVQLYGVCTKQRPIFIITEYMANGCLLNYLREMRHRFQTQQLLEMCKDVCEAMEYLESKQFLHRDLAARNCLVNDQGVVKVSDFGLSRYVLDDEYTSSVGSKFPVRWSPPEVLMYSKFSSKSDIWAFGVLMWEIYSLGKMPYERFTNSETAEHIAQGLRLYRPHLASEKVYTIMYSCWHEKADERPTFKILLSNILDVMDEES
Assay type: biochemical
How it was run: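 Z′-LYTE FRET readout: 1.04-10.4 ng BTK with 2 μM Tyr 01 peptide, ATP at Km, in 50 mM HEPES pH 7.5, 10 mM MgCl2, 1 mM EGTA, 0.01% BRIJ-35, 1% DMSO. 60 min kinase reaction at room temperature, then 60 min development; IC50 from 10-point, 3-fold titrations.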
For `C=CC(=O)N1CCC(c2cc(-c3ccc(Oc4cccc(F)c4)nc3)cc3cncnc23)C1` (stereo not drawn) [C095, 1-(3-(6-(6-(3-fluorophenoxy)pyridin-3-yl)quinazolin-8-yl)pyrrolidin-1-yl)prop-2-en-1-one], the inhibition at 0.1 µM was < 50%.
`C=CC(=O)Nc1cccc(-c2cc(-c3ccc(Oc4ccccc4F)nc3)cc3cncnc23)c1` [C096, N-(3-(6-(6-(2-fluorophenoxy)pyridin-3-yl)quinazolin-8-yl)phenyl)acrylamide] was tested, and the inhibition at 0.1 µM was > 50%.
With `C=CC(=O)N1CCC(c2cc(-c3ccc(C(=O)Nc4cccc(F)c4)nc3)cc3cncnc23)C1` (stereo not drawn) [C097, 5-(8-(1-acryloylpyrrolidin-3-yl)quinazolin-6-yl)-N-(3-fluorophenyl)picolinamide] the inhibition at 0.1 µM was < 50%.
With `C=CC(=O)Nc1cccc(-c2cc(-c3ccc(Oc4cc(C(F)(F)F)ccn4)cc3)cc3cnc(N)nc23)c1` [C098, N-(3-(2-amino-6-(4-((4-(trifluoromethyl)pyridin-2-yl)oxy)phenyl)quinazolin-8-yl)phenyl)acrylamide] the inhibition at 0.1 µM was < 50%.
`C=CC(=O)Nc1cccc(-c2cc(-c3ccc(C(=O)N4CCOCC4)cc3)cc3cncnc23)c1` [C101, N-(3-(6-(4-(morpholine-4-carbonyl)phenyl)quinazolin-8-yl)phenyl)acrylamide] was tested, and the inhibition at 0.1 µM was > 50%.
`C=CC(=O)Nc1cccc(-c2cc(-c3cncc(Cl)c3)cc3cnc(N)nc23)c1` [C103, N-(3-(2-amino-6-(5-chloropyridin-3-yl)quinazolin-8-yl)phenyl)acrylamide] was tested, and the inhibition at 0.1 µM was > 50%.
In the case of `C=CC(=O)N1CCC(c2cc(-c3ccc(Oc4cc(C(F)(F)F)ccn4)cc3)cc3cnc(N)nc23)C1` (stereo not drawn) [C104, 1-(3-(2-amino-6-(4-((4-(trifluoromethyl)pyridin-2-yl)oxy)phenyl)quinazolin-8-yl)pyrrolidin-1-yl)prop-2-en-1-one], the inhibition at 0.1 µM is reported as < 50%.
For `C=CC(=O)Nc1cccc(-c2cc(-c3ccc(Oc4ncccc4Cl)cc3F)cc3cncnc23)c1` [C106, N-(3-(6-(4-((3-chloropyridin-2-yl)oxy)-2-fluorophenyl)quinazolin-8-yl)phenyl)acrylamide], the inhibition at 0.1 µM was > 50%.
For `C=CC(=O)N1CCC(c2cc(-c3ccc(Oc4ccccn4)cc3)cc3cncnc23)C1` (stereo not drawn) [C107, 1-(3-(6-(4-(pyridin-2-yloxy)phenyl)quinazolin-8-yl)pyrrolidin-1-yl)prop-2-en-1-one], the inhibition at 0.1 µM was > 50%.
For `C=CC(=O)N1CCC(c2cc(-c3ccc(Oc4ncccc4F)cc3F)cc3cncnc23)C1` (stereo not drawn) [C108, 1-(3-(6-(2-fluoro-4-((3-fluoropyridin-2-yl)oxy)phenyl)quinazolin-8-yl)pyrrolidin-1-yl)prop-2-en-1-one], the inhibition at 0.1 µM was > 50%.
For `C=CC(=O)Nc1cccc(-c2cc(-c3ccc(C(=O)Nc4cc(C#N)ccn4)cc3)cc3cncnc23)c1` [C109, 4-(8-(3-acrylamidophenyl)quinazolin-6-yl)-N-(4-cyanopyridin-2-yl)benzamide], the inhibition at 0.1 µM was < 50%.
For `C=CC(=O)Nc1cccc(-c2cc(-c3cncc(OC)c3)cc3cnc(N)nc23)c1` [C110, N-(3-(2-amino-6-(5-methoxypyridin-3-yl)quinazolin-8-yl)phenyl)acrylamide], the inhibition at 0.1 µM was > 50%.
With `C=CC(=O)Nc1cccc(-c2cc(-c3cncc(F)c3)cc3cnc(N)nc23)c1` [C111, N-(3-(2-amino-6-(5-fluoropyridin-3-yl)quinazolin-8-yl)phenyl)acrylamide] the inhibition at 0.1 µM was > 50%.
`C=CC(=O)Nc1cccc(-c2cc(-c3ccc(C(=O)Nc4cccnc4)cc3)cc3cncnc23)c1` [C113, 4-(8-(3-acrylamidophenyl)quinazolin-6-yl)-N-(pyridin-3-yl)benzamide] was tested, and the inhibition at 0.1 µM was < 50%.
With `C=CC(=O)N1CCC(c2cc(-c3ccc(Oc4ccccn4)cc3F)cc3cncnc23)C1` (stereo not drawn) [C114, 1-(3-(6-(2-fluoro-4-(pyridin-2-yloxy)phenyl)quinazolin-8-yl)pyrrolidin-1-yl)prop-2-en-1-one] the inhibition at 0.1 µM was > 50%.

Same assay, conditions: series of concentrations; GraphPad Prism 5
With `C=CC(=O)Nc1cccc(-c2cc(-c3cncc(Cl)c3)cc3cnc(N)nc23)c1` [C103, N-(3-(2-amino-6-(5-chloropyridin-3-yl)quinazolin-8-yl)phenyl)acrylamide] the IC50 was < 0.1 µM.
In the case of `C=CC(=O)Nc1cccc(-c2cc(-c3ccc(Oc4ncccc4Cl)cc3F)cc3cncnc23)c1` [C106, N-(3-(6-(4-((3-chloropyridin-2-yl)oxy)-2-fluorophenyl)quinazolin-8-yl)phenyl)acrylamide], the IC50 is reported as < 0.1 µM.
With `C=CC(=O)Nc1cccc(-c2cc(-c3cncc(F)c3)cc3cnc(N)nc23)c1` [C111, N-(3-(2-amino-6-(5-fluoropyridin-3-yl)quinazolin-8-yl)phenyl)acrylamide] the IC50 was < 0.1 µM.
